Experimental data taken from patent US10377770B2 (Novartis AG, priority 2015, dated 2019).

What follows are compounds tested against C-Raf FL (full length CRAF with Y340E and Y341E activating mutations, co-expressed with h14-3-3 zeta) (Homo sapiens (Human), UniProt P04049, Y340E/Y341E) (assay: In vitro Raf activity determination, AlphaScreen p-MEK readout, c-Raf (C-Raf FL)). Settings: c-Raf approximately 4 nM, ATP 1 μM, pre-incubation 60 minutes, reaction 1 hour.
Chain of C-Raf FL (full length CRAF with Y340E and Y341E activating mutations, co-expressed with h14-3-3 zeta) (P04049 whole entry Y340E/Y341E): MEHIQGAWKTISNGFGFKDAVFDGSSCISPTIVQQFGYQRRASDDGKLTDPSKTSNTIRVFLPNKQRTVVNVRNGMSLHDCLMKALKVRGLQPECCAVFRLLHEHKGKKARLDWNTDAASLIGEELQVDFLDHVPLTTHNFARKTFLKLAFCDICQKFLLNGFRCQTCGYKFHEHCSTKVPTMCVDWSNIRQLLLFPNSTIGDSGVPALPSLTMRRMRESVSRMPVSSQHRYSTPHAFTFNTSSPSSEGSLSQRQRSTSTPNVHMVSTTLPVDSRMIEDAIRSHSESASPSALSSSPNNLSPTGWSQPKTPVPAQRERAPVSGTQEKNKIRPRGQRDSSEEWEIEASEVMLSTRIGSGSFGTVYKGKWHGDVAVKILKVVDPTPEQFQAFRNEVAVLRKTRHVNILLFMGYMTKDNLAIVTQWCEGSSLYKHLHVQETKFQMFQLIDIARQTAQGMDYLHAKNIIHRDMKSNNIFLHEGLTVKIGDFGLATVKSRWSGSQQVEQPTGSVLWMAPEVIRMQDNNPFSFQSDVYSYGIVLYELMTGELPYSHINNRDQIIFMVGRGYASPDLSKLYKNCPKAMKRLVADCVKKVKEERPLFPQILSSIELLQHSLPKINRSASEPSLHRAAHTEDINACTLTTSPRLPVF
Chain of C-Raf FL (full length CRAF with Y340E and Y341E activating mutations, co-expressed with h14-3-3 zeta) (P63104 whole entry partner): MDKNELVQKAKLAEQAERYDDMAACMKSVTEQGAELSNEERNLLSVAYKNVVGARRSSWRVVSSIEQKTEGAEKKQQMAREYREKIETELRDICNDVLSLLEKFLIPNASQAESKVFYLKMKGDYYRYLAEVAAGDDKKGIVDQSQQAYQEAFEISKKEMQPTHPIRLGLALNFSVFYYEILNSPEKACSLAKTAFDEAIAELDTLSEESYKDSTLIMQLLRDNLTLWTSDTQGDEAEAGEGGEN
Format: biochemical
Outline: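 Full-length C-Raf (~4 nM) pre-incubated 60 min at room temperature with compound and kinase-dead biotinylated MEK1 (~10 nM) in Tris pH 7.5, 15 mM MgCl2, BSA, DTT. Reaction started with 1 μM ATP and run 1 h at room temperature. Phospho-MEK detected by AlphaScreen with anti-p-MEK antibody.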
`Cc1ccc(NC(=O)c2ccnc(C(F)(F)F)c2)cc1-c1cnc2c(c1)N1CCOC[C@H]1[C@](C)(C#N)C2` [Example 377, N-(3-((4aR,5R)-5-cyano-5-methyl-1,2,4,4a,5,6-hexahydro-[1,4]oxazino[4,3-a][1,5]naphthyridin-9-yl)-4-methylphenyl)-2-(trifluoromethyl)isonicotinamide] was tested, and the IC50 was 0.9 nM.
In the case of `Cc1ccc(NC(=O)c2ccnc(C(F)(F)F)c2)cc1-c1cnc2c(c1)N1CCOC[C@@H]1[C@@](C)(C#N)C2` [Example 378, N-(3-((4aS,5S)-5-cyano-5-methyl-1,2,4,4a,5,6-hexahydro-[1,4]oxazino[4,3-a][1,5]naphthyridin-9-yl)-4-methylphenyl)-2-(trifluoromethyl)isonicotinamide], the IC50 is reported as 0.2 nM.
`Cc1ccc(NC(=O)c2ccnc(C(F)(F)F)c2F)cc1-c1ccc2c(c1)N1CCOC[C@H]1[C@](F)(CO)C2` [Example 380, 3-fluoro-N-(3-((4aS,5S)-5-fluoro-5-(hydroxymethyl)-1,2,4,4a,5,6-hexahydro-[1,4)oxazino[4,3-a]quinolin-9-yl)-4-methylphenyl)-2-(trifluoromethyl)isonicotinamide] was tested, and the IC50 was 0.4 nM.
For `Cc1ccc(NC(=O)c2ccnc(C(F)(F)F)c2)cc1-c1ccc2c(c1)N1CCOC[C@H]1[C@](F)(CO)C2` [Example 381, N-(3-((4aS,5S)-5-fluoro-5-(hydroxymethyl)-1,2,4,4a,5,6-hexahydro-[1,4]oxazino[4,3-a]quinolin-9-yl)-4-methylphenyl)-2-(trifluoromethyl)isonicotinamide], the IC50 was 0.3 nM.
Compound `Cc1ccc(NC(=O)c2ccnc(C(F)(F)F)c2)cc1-c1ccc2c(c1)N1CCOC[C@H]1[C@](F)(CO)C2` [Example 382, N-(3-((4aS,5S)-5-fluoro-5-(hydroxymethyl)-1,2,4,4a,5,6-hexahydro-[1,4]oxazino[4,3-a]quinolin-9-yl)-4-methylphenyl)-2-(trifluoromethyl)isonicotinamide] has an IC50 of 0.2 nM.
`Cc1ncc(NC(=O)c2cccc(C(F)(F)F)c2)cc1-c1ccc2c(c1)N1CCOC[C@H]1[C@](F)(CO)C2` [Example 383, N-(5-((4aS,5S)-5-fluoro-5-(hydroxymethyl)-1,2,4,4a,5,6-hexahydro-[1,4]oxazino[4,3-a]quinolin-9-yl)-6-methylpyridin-3-yl)-3(trifluoromethyl)benzamide] was tested, and the IC50 was 1 nM.
Compound `Cc1ccc(NC(=O)c2cnnc(C(F)(F)F)c2)cc1-c1ccc2c(c1)N1CCOC[C@H]1[C@](F)(CO)C2` [Example 384, N-(3-((4aS,5S)-5-fluoro-5-(hydroxymethyl)-1,2,4,4a,5,6-hexahydro-[1,4]oxazino[4,3-a]quinolin-9-yl)-4-methylphenyl)-6-(trifluoromethyl)pyridazine-4-carboxamide] has an IC50 of 0.2 nM.
`Cc1ccc(NC(=O)c2ccnc(C(F)(F)F)c2F)cc1-c1ccc2c(c1)N1CCOC[C@H]1[C@](F)(CO)C2` [Example 385, 3-fluoro-N-(3-((4aS,5S)-5-fluoro-5-(hydroxymethyl)-1,2,4,4a,5,6-hexahydro-[1,4]oxazino[4,3-a]quinolin-9-yl)-4-methylphenyl)-2-(trifluoromethyl)isonicotinamide] was tested, and the IC50 was 0.6 nM.
With `Cc1ccc(NC(=O)c2ccnc(C(C)(C)F)c2)cc1-c1ccc2c(c1)N1CCOC[C@H]1[C@](F)(CO)C2` [Example 386, N-(3-((4aS,5S)-5-fluoro-5-(hydroxymethyl)-1,2,4,4a,5,6-hexahydro-[1,4]oxazino[4,3-a]quinolin-9-yl)-4-methylphenyl)-2-(2-fluoropropan-2-yl)isonicotinamide] the IC50 was 0.3 nM.
Work on `Cc1ccc(NC(=O)c2cncc(C(F)(F)F)c2)cc1-c1ccc2c(c1)N1CCOC[C@H]1[C@](F)(CO)C2` [Example 387, N-(3-((4aS,5S)-5-fluoro-5-(hydroxymethyl)-1,2,4,4a,5,6-hexahydro-[1,4]oxazino[4,3-a]quinolin-9-yl)-4-methylphenyl)-5-(trifluoromethyl)nicotinamide] yielded an IC50 of 0.3 nM.
For `Cc1ccc(NC(=O)c2cc(N)nc(C(F)(F)F)c2)cc1-c1ccc2c(c1)N1CCOC[C@H]1[C@](F)(CO)C2` [Example 390, 2-amino-N-(3-((4aS,5S)-5-fluoro-5-(hydroxymethyl)-1,2,4,4a,5,6-hexahydro-[1,4]oxazino[4,3-a]quinolin-9-yl)-4-methylphenyl)-6-(trifluoromethyl)isonicotinamide], the IC50 was 1.7 nM.
With `Cc1ccc(NC(=O)c2cc(Cl)nc(C(F)(F)F)c2)cc1-c1ccc2c(c1)N1CCOC[C@H]1[C@](F)(CO)C2` [Example 391, 2-chloro-N-(3-((4aS,5S)-5-fluoro-5-(hydroxymethyl)-1,2,4,4a,5,6-hexahydro-[1,4]oxazino[4,3-a]quinolin-9-yl)-4-methylphenyl)-6-(trifluoromethyl)isonicotinamide] the IC50 was 6.8 nM.
`Cc1ccc(NC(=O)c2cc(C(C)(C)N)cc(C(F)(F)F)c2)cc1-c1ccc2c(c1)N1CCOC[C@H]1[C@](F)(CO)C2` [Example 392, 3-(2-aminopropan-2-yl)-N-(3-((4aS,5S)-5-fluoro-5-(hydroxymethyl)-1,2,4,4a.5,6-hexahydro-[1,4]oxazino[4,3-a]quinolin-9-yl)-4-methylphenyl)-5-(trifluoromethyl)benzamide] gave an IC50 of 3.4 nM.
`Cc1ccc(NC(=O)c2cncc(C(F)(F)F)c2)cc1-c1ccc2c(c1)N1CCOC[C@H]1[C@](F)(CO)C2` [Example 393, N-(3-((4aS,5S)-5-fluoro-5-(hydroxymethyl)-1,2,4,4a,5,6-hexahydro-[1,4]oxazino[4,3-a]quinolin-9-yl)-4-methylphenyl)-5-(trifluoromethyl)nicotinamide] gave an IC50 of 0.1 nM.
Compound `Cc1ncc(NC(=O)c2cccc(C(F)(F)F)c2)cc1-c1ccc2c(c1)N1CCOC[C@H]1[C@@](F)(CO)C2` [Example 394, N-(5-((4aS,5R)-5-fluoro-5-(hydroxymethyl)-1,2,4,4a,5,6-hexahydro-[1,4]oxazino[4,3-a]quinolin-9-yl)-6-methylpyridin-3-yl)-3-(trifluoromethyl)benzamide] has an IC50 of 0.3 nM.
`Cc1ccc(NC(=O)c2ccnc(C(F)(F)F)c2F)cc1-c1ccc2c(c1)N1CCOC[C@H]1[C@@](F)(CO)C2` [Example 395, 3-fluoro-N-(3-((4aS,5R)-5-fluoro-5-(hydroxymethyl)-1,2,4,4a,5,6-hexahydro-[1,4]oxazino[4,3-a]quinolin-9-yl)-4-methylphenyl)-2-(trifluoromethyl)isonicotinamide] showed an IC50 of 0.2 nM.
`Cc1ccc(NC(=O)c2ccnc(C(F)(F)F)c2)cc1-c1ccc2c(c1)N1CCOC[C@H]1[C@@](F)(CO)C2` [Example 396, N-(3-((4aS,5R)-5-fluoro-5-(hydroxymethyl)-1,2,4,4a,5,6-hexahydro-[1,4]oxazino[4,3-a]quinolin-9-yl)-4-methylphenyl)-2-(trifluoromethyl)isonicotinamide] gave an IC50 of 0.2 nM.
`Cc1ccc(NC(=O)c2ccnc(C(F)(F)F)c2)cc1-c1ccc2c(c1)N1CCOC[C@@H]1[C@](F)(CO)C2` [Example 399, N-(3-((4aR,5S)-5-fluoro-5-(hydroxymethyl)-1,2,4,4a,5,6-hexahydro-[1,4]oxazino[4,3-a]quinolin-9-yl)-4-methylphenyl)-2-(trifluoromethyl)isonicotinamide] showed an IC50 of 0.3 nM.
In the case of `Cc1ccc(NC(=O)c2ccnc(C(C)(C)F)c2)cc1-c1ccc2c(c1)N1CCOC[C@@H]1[C@](F)(CO)C2` [Example 400, N-(3-((4aR,5S)-5-fluoro-5-(hydroxymethyl)-1,2,4,4a,5,6-hexahydro-[1,4]oxazino[4,3-a]quinolin-9-yl)-4-methylphenyl)-2-(2-fluoropropan-2-yl)isonicotinamide], the IC50 is reported as 0.1 nM.
